Assay results from ChEMBL document CHEMBL1152838, “QSAR study of antioxidant activity of wine polyphenols” (Eur J Med Chem, 2009).

Tests used:
[1] = tested on: Liver microsomes; experiment: Antioxidant activity in Wistar rat liver microsomes assessed as inhibition of lipid peroxidation by TBA assay; assay type: functional, Microsome
[2] = ABTS radical scavenging activity assessed as Trolox equivalent antioxidant capacity; assay type: physicochemical

Row | SMILES | IC50 [1] | Activity [2]
1 | COc1cc(/C=C/C(=O)O)ccc1O [FERULATE] |  | 0.23 mmol/L
2 | O=C(O)c1cc(O)c(O)c(O)c1 [GALLIC ACID] |  | 1.98 mmol/L
3 | O=c1c(O)c(-c2cc(O)c(O)c(O)c2)oc2cc(O)cc(O)c12 [MYRICETIN] | 10.5 µM | 1.02 mmol/L
4 | O=C1C[C@@H](c2ccc(O)cc2)Oc2cc(O)cc(O)c21 [NARINGENIN] | 100 µM | 
5 | O=c1c(O)c(-c2ccc(O)c(O)c2)oc2cc(O)cc(O)c12 [QUERCETIN] | 8.5 µM | 1.14 mmol/L

Results, then the molecule that gave them:

Row | IC50 [1] | Activity [2] | SMILES
6 | 25 µM | 0.99 mmol/L | Oc1cc(O)c2c(c1)O[C@H](c1ccc(O)c(O)c1)[C@H](O)C2 [(-)-EPICATECHIN]
7 | 100 µM |  | O=c1cc(-c2ccc(O)cc2)oc2cc(O)cc(O)c12 [APIGENIN]
8 |  | 1.01 mmol/L | O=C(O)/C=C/c1ccc(O)c(O)c1 [CAFFEIC ACID]
9 | 51 µM |  | Oc1cc(O)c2c(c1)OC(c1ccc(O)c(O)c1)C(O)C2 (stereo not drawn) [CATECHIN]
10 |  | 0.57 mmol/L | Oc1cc(O)c2c(c1)O[C@H](c1ccc(O)c(O)c1)[C@@H](O)C2 [CATECHIN]
11 | 19 µM | 0.79 mmol/L | O=c1c(O)c(-c2ccc(O)cc2)oc2cc(O)cc(O)c12 [KAEMPFEROL]
12 | 23 µM | 0.83 mmol/L | O=c1c(O)c(-c2ccc(O)cc2O)oc2cc(O)cc(O)c12 [MORIN]
13 |  | 0.4 mmol/L | Oc1ccc(/C=C/c2cc(O)cc(O)c2)cc1 [RESVERATROL]
